For data set [1] the following is noted: rat, in vivo.
A short description of data set [2]: Percutaneous absorption and excretion (Experiment 8). The conditions noted are these: after removing the unabsorbed ointment 6 hours after application.

We go through one compound from patent publication EP0143109A1, “Pranoprofen gelled ointment” (priority 1983, dated 1985).

As for `CC(C(=O)O)c1ccc2c(c1)Cc1cccnc1O2` (centres unmarked) [pranoprofen, Pranoprofen], the excretion route entry in data set [1] was “excreted mainly into urine and feces”. In data set [2], the “half-life of blood level” value is “about 5 hours”.
